Tests used:
[1] = target: T1, GST-STING139-378 (Mus musculus, UniProt Q3TBT3); experiment: Pull-down using biotinylated Ap4A and recombinant proteins (in vitro binding and competition); details: for Competition for the binding of STING to biotinylated Ap4A: 10-fold excess of the competitor, 1 h at 4° C.
T1 construct: GST-STING (aa 139-378); made in house; host or cells: Escherichia coli BL21
T1 sequence (Q3TBT3 139-378): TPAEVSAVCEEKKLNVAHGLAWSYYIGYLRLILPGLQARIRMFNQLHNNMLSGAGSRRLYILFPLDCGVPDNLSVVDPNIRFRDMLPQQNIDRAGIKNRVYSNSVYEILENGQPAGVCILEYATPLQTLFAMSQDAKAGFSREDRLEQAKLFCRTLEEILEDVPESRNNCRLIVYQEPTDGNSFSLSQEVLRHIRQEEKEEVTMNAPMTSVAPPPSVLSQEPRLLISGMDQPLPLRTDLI

[2] = system: MEF^Trex1−/−; experiment: Ifnβ / type I interferon mRNA levels (RT-qPCR) in treated MEF^Trex1−/−; format: cell-based, mouse; details: 500 μM
Description: (§1) RNA extraction and RT-qPCR RNA was extracted using Trizol (Invitrogen) and treated with TURBO DNase (Ambion) according to manufacturers' protocols. Reverse transcription (SuperScript IV reverse transcriptase; Invitrogen) and qPCR using specific primers were performed using SYBR GREEN (Takara) master mix and LightCycler 480 cycler (Roche). mRNA levels were normalized to Gapdh mRNA levels except in zebrafish experiments where mRNA levels were normalized to zebrafish actin (zactin).
(§2) Cells were transfected with JetPrime transfection reagent (Polyplus) at 1:2 ratio with various nucleic acids at 2 μg/ml. […] Ap4A or STAN-1 (Sigma Aldrich) were used at 500 μM in Optimem.
Next, to test whether Ap4A inhibits inflammatory responses via a STING-dependent mechanism, the inventors used three-prime repair exonuclease 1 (Trex1)-deficient mouse embryonic fibroblasts (MEF^Trex1−/−—FIG. S1D), as these are a well-characterized model of pathologic chronic inflammation with STING-dependent elevated Ifnβ levels (FIG. S1D)—(15, 16). First, the inventors treated MEF^Trex1−/− with Ap4A for 45, 90 and 180 min. […] To further assess the impact of Ap4A on STING activation and to avoid potential side effects of the addition of exogenous Ap4A to cells, the inventors next performed experiments where they modulate the expression levels of LysRS, the main producer of Ap4A (9, 10). […]

[3] = system: WT-MEF; experiment: DMXAA-induced Ifnβ expression in WT-MEF; format: cell-based, mouse; details: 200 μM DMXAA, treated with Ap4A for 2 h
Description: Data are normalized to non-treated control. Unpaired t-test. **: p<0.005.
as §1, §2

[4] = system: MEF^STING−/−; experiment: DMXAA-induced Ifnβ expression in STING knockout MEF; format: cell-based, mouse; details: 200 μM DMXAA, treated with Ap4A for 2 h
Description: Data are normalized to non-treated control.
as §1, §2

Row | Compound | Competition for the binding of STING to biotinylated Ap4A [1] | Interaction of STING139-378 with Streptavidin-immobilized biotinylated Ap4A ([1]; Western blotting of pull-down) | type I interferon expression (IFNα and IFNβ mRNA levels) ([2]; 3 hrs, RT-qPCR) | Ifnβ mRNA levels ([2]; Ap4A 45, 90 and 180 min, STAN-1 3 h, versus untreated) | Ability of DMXAA to induce Ifnβ expression on co-treatment [3] | Ability of DMXAA to induce Ifnβ expression on co-treatment [4]
1 | Nc1ncnc2c1ncn2[C@@H]1O[C@H](COP(=O)(O)OP(=O)(O)OP(=O)(O)OP(=O)(O)OC[C@H]2O[C@@H](n3cnc4c(N)ncnc43)[C@H](O)[C@@H]2O)[C@@H](O)[C@H]1O [Ap4A, Diadenosine tetraphosphate] | specific | interacts | decreases type I interferon expression | decreased Ifni mRNA levels | by half | no decrease was observed
2 | cyclic GMP-AMP [cGAMP] | displaced |  |  |  |  | 
